Data as given in PubChem BioAssay (NCI).
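The compound was tested at five concentrations on cells cultured in 96-well plates, with a 48-hour exposure period. TGI: concentration producing complete growth inhibition.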

What was measured:
Assay in all cases: inhibition of tumour cell growth, NCI panel, 48 h
COLO 205 colon = system: COLO 205 colon
HT29 colon = system: HT29 colon
SW-620 colon = system: SW-620 colon
UACC-257 melanoma = system: UACC-257 melanoma
NCI-H226 lung = system: NCI-H226 lung
ACHN renal = system: ACHN renal
IGROV1 ovarian = system: IGROV1 ovarian
K-562 leukemia = system: K-562 leukemia
NCI-H522 lung = system: NCI-H522 lung
A549 NSCLC = system: A549 NSCLC
SK-MEL-28 melanoma = system: SK-MEL-28 melanoma
SK-OV-3 ovarian = system: SK-OV-3 ovarian
CCRF-CEM leukemia = system: CCRF-CEM leukemia
MOLT-4 leukemia = system: MOLT-4 leukemia
M14 melanoma = system: M14 melanoma
SN12C renal = system: SN12C renal
RPMI-8226 leukemia = system: RPMI-8226 leukemia
MDA-MB-231 breast = system: MDA-MB-231 breast
MDA-N = system: MDA-N
NCI/ADR-RES ovarian = system: NCI/ADR-RES ovarian

Structure (SMILES): Cc1cn([C@@H]2C[C@H](CO)[C@@H](O)C2)c(=O)[nH]c1=O
- TGI (COLO 205 colon): > 100 µM
- TGI (HT29 colon): > 100 µM
- TGI (SW-620 colon): > 100 µM
- TGI (UACC-257 melanoma): > 100 µM
- TGI (NCI-H226 lung): > 100 µM
- TGI (ACHN renal): > 100 µM
- TGI (IGROV1 ovarian): > 100 µM
- TGI (K-562 leukemia): > 100 µM
- TGI (NCI-H522 lung): > 100 µM
- TGI (A549 NSCLC): > 100 µM
- TGI (SK-MEL-28 melanoma): > 100 µM
- TGI (SK-OV-3 ovarian): > 100 µM
- TGI (CCRF-CEM leukemia): > 100 µM
- TGI (MOLT-4 leukemia): > 100 µM
- TGI (M14 melanoma): > 100 µM
- TGI (SN12C renal): > 100 µM

Structure (SMILES): Cn1ccnc1C(O)(c1nccn1C)c1nccn1C
- TGI (COLO 205 colon): > 100 µM
- TGI (HT29 colon): > 100 µM
- TGI (SW-620 colon): > 100 µM
- TGI (UACC-257 melanoma): > 100 µM
- TGI (NCI-H226 lung): > 100 µM
- TGI (ACHN renal): > 100 µM
- TGI (NCI-H522 lung): > 100 µM
- TGI (SK-MEL-28 melanoma): > 100 µM
- TGI (M14 melanoma): > 100 µM
- TGI (SN12C renal): > 100 µM

Structure (SMILES): C=CCNC(=S)N=Nc1c(O)[nH]c2ccc([N+](=O)[O-])cc12
- TGI (COLO 205 colon): > 100 µM
- TGI (HT29 colon): > 100 µM
- TGI (SW-620 colon): > 100 µM
- TGI (RPMI-8226 leukemia): > 100 µM
- TGI (MDA-MB-231 breast): > 100 µM
- TGI (UACC-257 melanoma): > 100 µM
- TGI (NCI-H226 lung): > 100 µM
- TGI (ACHN renal): > 100 µM
- TGI (IGROV1 ovarian): > 100 µM
- TGI (K-562 leukemia): > 100 µM
- TGI (NCI-H522 lung): > 100 µM
- TGI (A549 NSCLC): > 100 µM
- TGI (MDA-N): > 100 µM
- TGI (SK-MEL-28 melanoma): > 100 µM
- TGI (SK-OV-3 ovarian): > 100 µM
- TGI (NCI/ADR-RES ovarian): > 100 µM
- TGI (CCRF-CEM leukemia): 41.5 µM
- TGI (MOLT-4 leukemia): > 100 µM
- TGI (M14 melanoma): > 100 µM
- TGI (SN12C renal): > 100 µM

Structure (SMILES): CCC1=NC(C(F)(F)F)(C(F)(F)F)N=C(N2CCOCC2)O1
- TGI (COLO 205 colon): > 100 µM
- TGI (HT29 colon): > 100 µM
- TGI (SW-620 colon): > 100 µM
- TGI (RPMI-8226 leukemia): > 100 µM
- TGI (MDA-MB-231 breast): > 100 µM
- TGI (UACC-257 melanoma): > 100 µM
- TGI (ACHN renal): > 100 µM
- TGI (IGROV1 ovarian): > 100 µM
- TGI (K-562 leukemia): > 100 µM
- TGI (NCI-H522 lung): > 100 µM
- TGI (A549 NSCLC): > 100 µM
- TGI (MDA-N): > 100 µM
- TGI (SK-MEL-28 melanoma): > 100 µM
- TGI (SK-OV-3 ovarian): > 100 µM
- TGI (NCI/ADR-RES ovarian): > 100 µM
- TGI (CCRF-CEM leukemia): > 100 µM
- TGI (MOLT-4 leukemia): > 100 µM
- TGI (M14 melanoma): > 100 µM
- TGI (SN12C renal): > 100 µM

Structure (SMILES): c1ccc2c(c1)c1c(n2CCOCCN2CCOCC2)CCCC1
- TGI (HT29 colon): 31.6 µM
- TGI (SW-620 colon): > 100 µM
- TGI (RPMI-8226 leukemia): 53.9 µM
- TGI (MDA-MB-231 breast): 47 µM
- TGI (UACC-257 melanoma): 47.8 µM
- TGI (ACHN renal): > 100 µM
- TGI (IGROV1 ovarian): > 100 µM
- TGI (K-562 leukemia): > 100 µM
- TGI (A549 NSCLC): > 100 µM
- TGI (MDA-N): > 100 µM
- TGI (SK-MEL-28 melanoma): 52 µM
- TGI (SK-OV-3 ovarian): > 100 µM
- TGI (NCI/ADR-RES ovarian): 54.9 µM
- TGI (CCRF-CEM leukemia): 69.4 µM
- TGI (MOLT-4 leukemia): 69.8 µM
- TGI (M14 melanoma): 30.9 µM
